# Results from PubChem BioAssay (NCI).
# “And” between values parts separate entries of the source, which are not always exact repeats. Equal entries are not always repeated.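 Results reflect a 48-hour exposure of cells in 96-well plates to compound at five concentrations. GI50 marks 50% less growth. At the TGI there is no net growth.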
# Tests used:
# Experiment in all cases: DTP human tumour cell line panel, 48 h
# SNB-75 CNS = test system: SNB-75 CNS
# NCI-H522 lung = test system: NCI-H522 lung
# NCI-H23 lung = test system: NCI-H23 lung
# DU-145 prostate = test system: DU-145 prostate
# KM12 colon = test system: KM12 colon
# NCI-H226 lung = test system: NCI-H226 lung
# TK-10 renal = test system: TK-10 renal
# SK-MEL-2 melanoma = test system: SK-MEL-2 melanoma
# T-47D breast = test system: T-47D breast
# HCT-15 colon = test system: HCT-15 colon
# UO-31 renal = test system: UO-31 renal
# MDA-MB-231 breast = test system: MDA-MB-231 breast
# RXF 393 renal = test system: RXF 393 renal
# HOP-62 NSCLC = test system: HOP-62 NSCLC
# SF-539 CNS = test system: SF-539 CNS
# MCF7 breast = test system: MCF7 breast
# UACC-62 melanoma = test system: UACC-62 melanoma
# HS 578T breast = test system: HS 578T breast
# SK-OV-3 ovarian = test system: SK-OV-3 ovarian
# M14 melanoma = test system: M14 melanoma
# RPMI-8226 leukemia = test system: RPMI-8226 leukemia
# OVCAR-5 ovarian = test system: OVCAR-5 ovarian
# BT-549 breast = test system: BT-549 breast
# SK-MEL-28 melanoma = test system: SK-MEL-28 melanoma
# A498 renal = test system: A498 renal
# SNB-19 CNS = test system: SNB-19 CNS
# MALME-3M melanoma = test system: MALME-3M melanoma
# HCT-116 colon = test system: HCT-116 colon
# HCC-2998 colon = test system: HCC-2998 colon
# SF-268 CNS = test system: SF-268 CNS
# COLO 205 colon = test system: COLO 205 colon
# CCRF-CEM leukemia = test system: CCRF-CEM leukemia
# SF-295 CNS = test system: SF-295 CNS
# 786-0 renal = test system: 786-0 renal
# K-562 leukemia = test system: K-562 leukemia
# OVCAR-3 ovarian = test system: OVCAR-3 ovarian
# LOX IMVI melanoma = test system: LOX IMVI melanoma
# U251 CNS = test system: U251 CNS
# PC-3 prostate = test system: PC-3 prostate
# HL-60(TB) leukemia = test system: HL-60(TB) leukemia
# SW-620 colon = test system: SW-620 colon
# HT29 colon = test system: HT29 colon
# MOLT-4 leukemia = test system: MOLT-4 leukemia
# NCI-H460 lung = test system: NCI-H460 lung
# ACHN renal = test system: ACHN renal
# MDA-MB-435 = test system: MDA-MB-435
# IGROV1 ovarian = test system: IGROV1 ovarian
# NCI/ADR-RES ovarian = test system: NCI/ADR-RES ovarian
# OVCAR-4 ovarian = test system: OVCAR-4 ovarian
# EKVX NSCLC = test system: EKVX NSCLC
# OVCAR-8 ovarian = test system: OVCAR-8 ovarian
# CAKI-1 renal = test system: CAKI-1 renal
# SR leukemia = test system: SR leukemia
# SK-MEL-5 melanoma = test system: SK-MEL-5 melanoma
# UACC-257 melanoma = test system: UACC-257 melanoma
# HOP-92 NSCLC = test system: HOP-92 NSCLC
# A549 NSCLC = test system: A549 NSCLC
# SN12C renal = test system: SN12C renal
smiles,measurement,setting,value
O=c1[nH]cnc2[nH]ncc12,GI50,SNB-75 CNS,1180 µM
same,TGI,SNB-75 CNS,> 4110 µM
same,GI50,NCI-H522 lung,> 84.4 µM and 272 µM
same,TGI,NCI-H522 lung,> 5000 µM
same,GI50,NCI-H23 lung,227 µM
same,TGI,NCI-H23 lung,> 1870 µM
same,GI50,DU-145 prostate,> 92.6 µM and 189 µM
same,TGI,DU-145 prostate,> 2150 µM
same,GI50,KM12 colon,1250 µM
same,TGI,KM12 colon,> 5000 µM
same,GI50,NCI-H226 lung,878 µM
same,TGI,NCI-H226 lung,> 5000 µM
same,GI50,TK-10 renal,> 94.6 µM and 258 µM
same,TGI,TK-10 renal,> 5000 µM
same,GI50,SK-MEL-2 melanoma,> 36.5 µM and 257 µM
same,TGI,SK-MEL-2 melanoma,> 5000 µM
same,GI50,T-47D breast,698 µM
same,TGI,T-47D breast,> 5000 µM
same,GI50,HCT-15 colon,143 µM
same,TGI,HCT-15 colon,> 5000 µM
same,GI50,UO-31 renal,> 64.9 µM and 525 µM
same,TGI,UO-31 renal,> 5000 µM
same,GI50,MDA-MB-231 breast,163 µM
same,TGI,MDA-MB-231 breast,1750 µM
same,GI50,RXF 393 renal,266 µM
same,TGI,RXF 393 renal,> 5000 µM
same,GI50,HOP-62 NSCLC,353 µM
same,TGI,HOP-62 NSCLC,> 5000 µM
same,GI50,SF-539 CNS,2010 µM
same,TGI,SF-539 CNS,> 5000 µM
same,GI50,MCF7 breast,259 µM
same,TGI,MCF7 breast,> 5000 µM
same,GI50,UACC-62 melanoma,166 µM
same,TGI,UACC-62 melanoma,> 2560 µM
same,GI50,HS 578T breast,2540 µM
same,TGI,HS 578T breast,> 5000 µM
same,GI50,SK-OV-3 ovarian,> 85.9 µM and 111 µM
same,TGI,SK-OV-3 ovarian,> 4080 µM
same,GI50,M14 melanoma,234 µM
same,TGI,M14 melanoma,> 5000 µM
same,GI50,RPMI-8226 leukemia,116 µM
same,TGI,RPMI-8226 leukemia,> 5000 µM
same,GI50,OVCAR-5 ovarian,486 µM
same,TGI,OVCAR-5 ovarian,> 1550 µM
same,GI50,BT-549 breast,578 µM
same,TGI,BT-549 breast,> 5000 µM
same,GI50,SK-MEL-28 melanoma,2000 µM
same,TGI,SK-MEL-28 melanoma,> 5000 µM
same,GI50,A498 renal,532 µM
same,TGI,A498 renal,> 5000 µM
same,GI50,SNB-19 CNS,> 5000 µM
same,TGI,SNB-19 CNS,> 5000 µM
same,GI50,MALME-3M melanoma,1330 µM
same,TGI,MALME-3M melanoma,> 5000 µM
same,GI50,HCT-116 colon,444 µM
same,TGI,HCT-116 colon,> 5000 µM
same,GI50,HCC-2998 colon,319 µM
same,TGI,HCC-2998 colon,> 5000 µM
same,GI50,SF-268 CNS,> 5000 µM
same,TGI,SF-268 CNS,> 5000 µM
same,GI50,COLO 205 colon,440 µM
same,TGI,COLO 205 colon,> 5000 µM
same,GI50,CCRF-CEM leukemia,360 µM
same,TGI,CCRF-CEM leukemia,> 5000 µM
same,GI50,SF-295 CNS,349 µM
same,TGI,SF-295 CNS,> 5000 µM
same,GI50,786-0 renal,400 µM
same,TGI,786-0 renal,> 5000 µM
same,GI50,K-562 leukemia,179 µM
same,TGI,K-562 leukemia,> 5000 µM
same,GI50,OVCAR-3 ovarian,269 µM
same,TGI,OVCAR-3 ovarian,> 1820 µM
same,GI50,LOX IMVI melanoma,142 µM
same,TGI,LOX IMVI melanoma,> 5000 µM
same,GI50,U251 CNS,1560 µM
same,TGI,U251 CNS,> 4470 µM
same,GI50,PC-3 prostate,253 µM
same,TGI,PC-3 prostate,> 5000 µM
same,GI50,HL-60(TB) leukemia,> 79.9 µM and 108 µM
same,TGI,HL-60(TB) leukemia,> 3420 µM
same,GI50,SW-620 colon,356 µM
same,TGI,SW-620 colon,> 5000 µM
same,GI50,HT29 colon,842 µM
same,TGI,HT29 colon,> 5000 µM
same,GI50,MOLT-4 leukemia,972 µM
same,TGI,MOLT-4 leukemia,> 5000 µM
same,GI50,NCI-H460 lung,1510 µM
same,TGI,NCI-H460 lung,> 5000 µM
same,GI50,ACHN renal,193 µM
same,TGI,ACHN renal,> 5000 µM
same,GI50,MDA-MB-435,380 µM
same,TGI,MDA-MB-435,> 5000 µM
same,GI50,IGROV1 ovarian,54.6 µM and 422 µM
same,TGI,IGROV1 ovarian,> 5000 µM
same,GI50,NCI/ADR-RES ovarian,214 µM
same,TGI,NCI/ADR-RES ovarian,> 1250 µM
same,GI50,OVCAR-4 ovarian,160 µM
same,TGI,OVCAR-4 ovarian,> 3050 µM
same,GI50,EKVX NSCLC,785 µM
same,TGI,EKVX NSCLC,> 5000 µM
same,GI50,OVCAR-8 ovarian,214 µM
same,TGI,OVCAR-8 ovarian,> 5000 µM
same,GI50,CAKI-1 renal,97.2 µM
same,TGI,CAKI-1 renal,> 5000 µM
same,GI50,SR leukemia,480 µM
same,TGI,SR leukemia,> 2670 µM
same,GI50,SK-MEL-5 melanoma,1200 µM
same,TGI,SK-MEL-5 melanoma,> 5000 µM
same,GI50,UACC-257 melanoma,788 µM
same,TGI,UACC-257 melanoma,> 5000 µM
same,GI50,HOP-92 NSCLC,163 µM
same,TGI,HOP-92 NSCLC,> 3250 µM
same,GI50,A549 NSCLC,1940 µM
same,TGI,A549 NSCLC,> 5000 µM
same,GI50,SN12C renal,485 µM
same,TGI,SN12C renal,> 5000 µM
